Here are results for 39 compounds from ChEMBL document CHEMBL1126164, “SR 46559 A and related aminopyridazines are potent muscarinic agonists with no cholinergic syndrome” (Bioorg Med Chem Lett, 1992).

Positions count from the first letter of the chain named. pIC50, pKi: −log10 of the molar value. Calls of active or inactive are those of the source. The calls are words filed in the database; no cut-off is given here.

Series [1] concerns Mus musculus. Kind of series: Percent inhibition of the number of pirenzepine-induced rotations in mice, on oral administration (3 mg/kg) 4 hr before the test; Inactive. Format: functional, organism-based.
The test system of series [2] is Mus musculus. Kind of series: Percent inhibition of the number of pirenzepine-induced rotations in mice, on oral administration(0.3 mg/kg) 4 hr before the test; Inactive. It is filed as functional, organism-based.
Series [3] concerns the target T1, Muscarinic acetylcholine receptor M1 (Rattus norvegicus, UniProt P08482).
T1 sequence (P08482 whole entry): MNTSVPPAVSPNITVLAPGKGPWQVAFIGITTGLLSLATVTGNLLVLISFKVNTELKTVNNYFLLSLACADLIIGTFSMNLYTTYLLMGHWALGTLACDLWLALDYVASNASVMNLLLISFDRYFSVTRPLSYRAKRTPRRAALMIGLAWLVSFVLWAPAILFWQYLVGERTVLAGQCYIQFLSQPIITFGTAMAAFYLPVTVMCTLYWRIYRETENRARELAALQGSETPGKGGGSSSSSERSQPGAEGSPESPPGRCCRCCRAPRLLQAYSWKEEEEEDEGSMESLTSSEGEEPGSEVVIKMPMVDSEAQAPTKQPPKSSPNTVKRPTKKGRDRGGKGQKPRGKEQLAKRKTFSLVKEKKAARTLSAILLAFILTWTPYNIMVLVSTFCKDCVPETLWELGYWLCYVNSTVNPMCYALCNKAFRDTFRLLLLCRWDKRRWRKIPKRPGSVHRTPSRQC
Put plainly: Displacement of [3H]pirenzepine from cerebral Muscarinic acetylcholine receptor M1. In general terms: In a radioligand displacement assay an active substance lowers the binding of a labelled ligand.

Series [4] concerns Mus musculus. Put plainly: Percent inhibition of the number of pirenzepine-induced rotations in mice, on orally administration (0.3 mg/kg) 4 hr before the test. It is filed as functional.
Series [5] has as its system Mus musculus. Put plainly: Percent inhibition of the number of pirenzepine-induced rotations in mice, on oral administration (3 mg/kg) 4 hr before the test. It is filed as functional.
Series [6] can be described thus: (§1) Lethal dose in mice after oral administration. Particulars: mouse, in vivo. Format: toxicity.
A short description of series [7]: as §1. Format: toxicity, organism-based. Particulars: mouse, in vivo.
Series [8] relates to Mus musculus. Put plainly: Percent inhibition of the number of pirenzepine-induced rotations in mice, on oral administration (0.3 mg/kg) 4 hr before the test. Format: functional.
Series [9] is filed under the species Mus musculus. Kind of series: Effective dose required to antagonize scopolamine-induced deficit in passive avoidance learning. It is filed as functional.
The species entered for series [10] is Mus musculus. Kind of series: Effective dose required to antagonize pirenzepine-induced deficit in passive avoidance learning. It is filed as functional.
The subject of series [11] is Mus musculus. Put plainly: Compound was evaluated for toxicity up to 300 mg/kg; NT - No Toxicity. Format: functional, organism-based. Further details: dose 300 mg/kg.
The species named for series [12] is Rattus norvegicus. Put plainly: Compound was tested for inhibitory concentration required for the K+ release of [3H]- GABA from rat striatal slices and reduced at 0.5 and 1 uM. It is filed as functional.
The species entered for series [13] is Mus musculus. Kind of series: Compound was tested for the ability to stimulate diacylglycerol formation antagonized by atropine. Format: functional, organism-based.
Series [14] has as its system Rattus norvegicus. Put plainly: Effective dose required to potentiate haloperidol induced catalepsy in rats (p.o.). Format: functional. Particulars: po.
Series [15] addresses T2, Muscarinic acetylcholine receptor M1 (Homo sapiens, UniProt P11229).
T2 sequence (P11229 whole entry): T1 sequence (P08482 whole entry) with V5A, S254T, S309P, K320R, G337A, V413I
Put plainly: Compound was tested for its affinity for muscarinic M1 receptor.

The species named for series [16] is Mus musculus. Kind of series: Effective dose required to antagonize rotations induced in mice by intrastriatal injection of pirenzepine. It is filed as functional.

What is called pIC50 is the negative decadic logarithm of the IC50, by convention in mol/L. As to `CCN1CCCC1CNc1cc(-c2ccccc2)c(C)nn1` (configuration not stated), the inhibition entry in the series on Mus musculus [1] and with Mus musculus [2] was “inactive” each time. The compound further showed a negative-log IC50 (pIC50) in series [3] of 7.70. In series [3], `Cc1cc(NCCN(C)C)ccc1-c1ccccc1` had a negative logarithm of the IC50 (pIC50) of 6.85. The same measure, in the same setting: the value for `c1ccc2c(c1)CCCc1cc(NCCN3CCOCC3)nnc1-2` was 6.43; that for `CCN(CC)C(C)(C)CNc1cc(C2CC2)c(-c2ccccc2)nn1` was 6.40. The same measure, in the same setting: the value for `c1ccc(-c2ccc(NCCN3CCOCC3)nn2)cc1` was 4.92.

As to `O=Cc1cc(-c2ccccc2)nnc1NCCN1CCOCC1`, in series [3], the negative-log IC50 (pIC50) was under 4.00. Take `CCN(CC)C(C)(C)CNc1cc(C)c(-c2ccccc2O)nn1`: the pIC50 in series [3] was 6.62. On to `Cc1cc(-c2ccccc2)nnc1NCCN1CCC(O)CC1`, for which the negative logarithm of the IC50 (pIC50) in series [3] is under 4.00. In [3], `CCCc1cc(NC2CCCN2CC)nnc1-c1ccccc1` (single isomer, unassigned; (-)) gave a pIC50 of 8.00. Regarding `Cc1cc(-c2ccccc2)nnc1NCCN(C)C`, the pIC50 in series [3] was 6.64. Against the preceding compound, the pIC50 is 1.36 log units lower. Same read-out and setting: the value for `Cc1cc(C2CCCCC2)nnc1NCCN1CCOCC1` was 5.22; that for `CCN1CCCC1CNc1nnc(-c2ccccc2)cc1C` (configuration not stated) was 6.10; that for `Cc1cc(-c2cccs2)nnc1NCCN1CCOCC1` was 5.40. The same measure, in the same setting: in the case of `Cc1c(NCCN2CCOCC2)nnc(-c2ccccc2)c1C` it was 6.15; in that of `Cc1cc(NCCCN(C)C)ccc1-c1ccccc1`, 6.30; in that of `CCCc1nnc(NCC(C)(C)N(CC)CC)cc1-c1ccccc1`, 7.30. Still for that read-out and setting: in the case of `N#Cc1cc(-c2ccccc2)nnc1NCCN1CCOCC1` [BAZINAPRINE] it was 4.22; in that of `Cc1cc(-c2ccccc2)nnc1NCCN1CCOCC1=O`, under 4.00.

As a reminder, the Inhibition is the change of the read-out against control, counted positive when it falls. For orientation: LD50 means the dose at which mortality reaches 50%. On to `CCN(CC)C(C)(C)CNc1cc(-c2ccccc2)c(-c2ccccc2)nn1`, for which the results for the Inhibition in the series with Mus musculus [4] and with Mus musculus [5] were 87% and 113%, respectively. In series [6], this compound showed an LD50 of 250 mg/kg. In series [3], this compound had a negative logarithm of the IC50 (pIC50) of 7.40. In turn, `CCCc1cc(NC2CCCN2CC)nnc1-c1ccccc1` (racemic) gave a negative-log IC50 (pIC50) in [3] of 7.52. On to `CCN(CC)C(C)(C)CNc1cc(-c2ccccc2)c(CC(C)C)nn1`, for which the LD50 in series [7] was determined as 250 mg/kg. In addition, the pIC50 in series [3] is 7.70. With `c1ccc2c(c1)CCCc1cc(NCCCN3CCOCC3)nnc1-2`, the pIC50 in [3] was 5.70. On the same count and under the same terms, in the case of `CCCc1cc(NCC(C)(C)N(CC)CC)nnc1-c1ccccc1O` it was 6.89; in that of `c1ccc(-c2cc(-c3ccccc3)c(NCCN3CCOCC3)nn2)cc1`, 6.22. Regarding `CCCc1cc(NCCN2CCOCC2)nnc1-c1ccccc1`, the negative logarithm of the IC50 (pIC50) in series [3] was 5.80. Compared with the last compound, the pIC50 is 0.42 log units lower. In the case of `CCN(CC)C(C)(C)CNc1cc(-c2ccccc2)c(C)nn1`, the figures for the Inhibition in the series with Mus musculus [5] and with Mus musculus [8] were 85% and 65%, respectively. Moreover, in series [3], the negative-log IC50 (pIC50) is 6.74.

`Cc1cc(-c2ccc3ccccc3c2)nnc1NCCN1CCOCC1` had a negative-log IC50 (pIC50) in series [3] of 5.12.

In [3], `CCN(CC)CCNc1nnc(-c2ccccc2)cc1C` had a negative-log IC50 (pIC50) of 6.62. Still for that read-out and setting: the value for `CCN1CCCC1CNc1cc(C)c(-c2ccccc2)nn1` (configuration not stated) was 6.59; that for `Cc1cc(-c2ccccc2)nnc1NCCN1CCOCC1` [MINAPRINE] was 4.77. Same read-out and setting: the value for `CCN1CCCC1CNc1cc(C)c(-c2ccccc2O)nn1` (configuration not stated) was 8.10. Take `CCc1cc(-c2ccccc2)nnc1NCCN1CCOCC1`: the negative logarithm of the IC50 (pIC50) in series [3] was 5.80. As to `c1ccc(-c2cc(Cc3ccc4ccccc4c3)c(NCCN3CCOCC3)nn2)cc1`, the pIC50 in [3] was 4.80. The compound `c1ccc(-c2cc(NCCN3CCOCC3)nnc2-c2ccccc2)cc1` had a pIC50 in [3] of 6.77. Compared with the last compound, the pIC50 is 1.97 log units higher.

`O=C(O)c1cc(-c2ccccc2)nnc1NCCN1CCOCC1` showed a pIC50 in series [3] of under 4.00. Still for that read-out and setting: in the case of `c1ccc(Cc2cc(-c3ccccc3)nnc2NCCN2CCOCC2)cc1` it was 5.34.

The compound `CCN(CC)C(C)(C)CNc1cc(C)c(-c2ccccc2)nn1` had a negative-log IC50 (pIC50) in series [3] of 5.64. With `CCCc1cc(NC2CCCN2CC)nnc1-c1ccccc1` (single isomer, unassigned; (+)), the pIC50 in series [3] was 7.22. What is called ED50 is the dose that gives a 50% effect, or the effect in half of the subjects. The term pKi denotes −log10 of the Ki, conventionally taken in molar units. As to `CCCc1cc(NCC(C)(C)N(CC)CC)nnc1-c1ccccc1`, the ED50 in the series listed under Mus musculus [9] amounted to 0.25 mg/kg; in the series listed under Mus musculus [10], 0.027 mg/kg; in the series on Rattus norvegicus [14], 0.1 mg/kg; in the series listed under Mus musculus [16] it was 0.12 mg/kg. Further, the result with Mus musculus [11] was inactive. Moreover, the Inhibition in the series with Mus musculus [5] came out at 78%; in the series on Mus musculus [8], 51%. Also, the negative logarithm of the IC50 (pIC50) in the series listed under Rattus norvegicus [12] is 5.00; in the series listed under Mus musculus [13], 4.30; in series [3], 6.96. The compound further gave a pKi in [15] of 6.95.
